The record followed here is patent US12378249B2, “Isoquinoline compounds and uses thereof” (Genentech, Inc., priority 2018, dated 2025).

Where a name gives a salt, the structure may show the parent alone.

The target of this test is HPK1 (Homo sapiens (Human), UniProt Q92918, S171E/T165E). Description: HPK1-FL HTRF Enzymatic Assay (HTRF). It counts as biochemical. The conditions noted are these: HPK full length T165E S171E 0.125 nM, ATP 1 mM, Biotin-SLP76 100 nM, read-out: HPK1 Ki (nM), H = HTRF. Here is the method: Exemplary compounds of Formula (I) were tested to assess compound inhibition of HPK-1. The Ki for each exemplary compound was determined
Sequence of HPK1 (Q92918 whole entry T165E/S171E): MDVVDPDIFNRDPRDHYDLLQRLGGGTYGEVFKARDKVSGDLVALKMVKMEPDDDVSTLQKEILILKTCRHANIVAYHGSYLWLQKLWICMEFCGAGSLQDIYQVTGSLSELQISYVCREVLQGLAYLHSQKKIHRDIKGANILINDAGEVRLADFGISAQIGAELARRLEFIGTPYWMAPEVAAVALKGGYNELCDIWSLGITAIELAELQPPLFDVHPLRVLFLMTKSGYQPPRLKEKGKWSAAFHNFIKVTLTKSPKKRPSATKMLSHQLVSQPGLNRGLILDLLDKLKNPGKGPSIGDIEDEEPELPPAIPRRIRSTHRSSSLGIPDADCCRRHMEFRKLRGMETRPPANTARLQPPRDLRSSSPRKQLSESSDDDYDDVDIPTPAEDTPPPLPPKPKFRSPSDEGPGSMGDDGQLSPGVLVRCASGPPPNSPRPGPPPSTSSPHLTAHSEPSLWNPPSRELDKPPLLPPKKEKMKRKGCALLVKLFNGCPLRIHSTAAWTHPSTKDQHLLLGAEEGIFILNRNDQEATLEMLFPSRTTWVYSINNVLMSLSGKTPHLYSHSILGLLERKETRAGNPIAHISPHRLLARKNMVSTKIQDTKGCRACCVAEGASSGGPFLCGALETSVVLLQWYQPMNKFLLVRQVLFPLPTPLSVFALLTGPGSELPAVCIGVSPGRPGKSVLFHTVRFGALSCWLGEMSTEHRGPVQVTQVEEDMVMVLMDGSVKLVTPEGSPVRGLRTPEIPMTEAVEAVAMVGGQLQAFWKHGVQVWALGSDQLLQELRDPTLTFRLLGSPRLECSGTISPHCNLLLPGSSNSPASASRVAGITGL
Example B1: HPK1-FL HTRF Enzymatic Assay (“HTRF”)
HPK-FL enzyme phosphorylates Biotin-SLP-76 substrate in the presence of ATP at 1 mM and varying concentrations of test compound. Product is detected by FRET using Eu-anti-pSLP76 Ab and SA-XL665. Also see www.cisbio.com/HTRF for additional HTRF technology information.
• Echo555 compound dispenser • Agilent Bravo • Perkin Elmer Envision Final Assay Conditions:
Materials: • Assay plate: White ProxiPlate 384 F (PerkinElmer cat #6008289) • Kinase: HPK full length double mutant • Substrate: Biotin-SLP76 • ATP: 100 mM ATP • BSG: 2% BSG • DMSO: DMSO (Sigma cat #34869-100ML) • Reaction Buffer: H2O/50 mM HEPES, pH 7.5/10 mM MgCl2/2 mM TCEP/0.01% Brij-35/0.01% BSG • Detection mix:Eu-anti-pSLP76/SA-XL665 (Cisbio, #610SAXAC) Assay Procedure Ki determination:
To a 384 well Proxiplate with 80 nL compound or DMSO spotted on was added 4 μl/well kinase mix. The mixture was preincubated for 30 minutes and then 4 μl/well substrate mix was added. The solution was incubated for 60 min and then 4 μl/well detection mix was added. The solution was incubated for another 60 min. The plates were then loaded onto a Perkin Elmer Envision and the TR-FRET signal was measured at 615 and 665 nm. A ratio of […] was used to calculate the % activity at each concentration of compound.
Turning to `Cc1ncc(-c2cc3cc(Nc4cc5n(n4)CC(=O)N(C(C)C)CC5F)ncc3cc2F)c(C)c1N` (racemic) [Compound 150, (+/-)-2-((6-(5-amino-4,6-dimethylpyridin-3-yl)-7-fluoroisoquinolin-3-yl)amino)-4-fluoro-6-isopropyl-5,6-dihydro-4H-pyrazolo[1,5-d][1,4]diazepin-7(8H)-one], the Ki is 0.15 nM.

Take `Cc1c(N)cncc1-c1cc2cc(Nc3cc4n(n3)Cc3nccn3CC4O)ncc2c(F)c1F` (racemic) [Compound 170, (+/−)-8-((6-(5-amino-4-methylpyridin-3-yl)-7,8-difluoroisoquinolin-3-yl)amino)-5,6-dihydro-11H-imidazo[1,2-a]pyrazolo[1,5-d][1,4]diazepin-6-ol]: the inhibition constant (Ki) came to 0.035 nM.

As for `Cc1c(-c2cc3cc(Nc4cc5n(n4)CC(=O)NCC5)ncc3cc2F)cnc2c1NC(C)CO2` (racemic) [Compound 182, (+/−)-2-((6-(2,8-dimethyl-2,3-dihydro-1H-pyrido[2,3-b][1,4]oxazin-7-yl)-7-fluoroisoquinolin-3-yl)amino)-5,6-dihydro-4H-pyrazolo[1,5-d][1,4]diazepin-7(8H)-one], the Ki was 0.073 nM.

Take `Cc1c(-c2cc3cc(Nc4cc5n(n4)CC(=O)NCC5)ncc3cc2F)cnc2c1NCC(C)O2` (racemic) [Compound 184, (+/−)-2-((6-(3,8-dimethyl-2,3-dihydro-1H-pyrido[2,3-b][1,4]oxazin-7-yl)-7-fluoroisoquinolin-3-yl)amino)-5,6-dihydro-4H-pyrazolo[1,5-d][1,4]diazepin-7(8H)-one]: the Ki was determined as 0.018 nM.

Take `Cc1c(-c2cc3cc(Nc4cc5n(n4)Cc4nccn4CC5)ncc3cc2F)cnc2c1NCC[S+]2[O-]` (racemic) [Compound 189, (+/−)-7-(3-((5,6-dihydro-11H-imidazo[1,2-a]pyrazolo[1,5-d][1,4]diazepin-8-yl)amino)-7-fluoroisoquinolin-6-yl)-8-methyl-2,3-dihydro-1H-pyrido[2,3-b][1,4]thiazine 4-oxide]: the Ki amounted to 0.48 nM.

`Cc1c(N)cncc1-c1cc2cc(Nc3cc4n(n3)C[S+]([O-])CC4)ncc2cc1F` (racemic) [Compound 191, (+/-)-2-((6-(5-amino-4-methylpyridin-3-yl)-7-fluoroisoquinolin-3-yl)amino)-4,5-dihydro-7H-pyrazolo[1,5-c][1,3]thiazine 6-oxide]: the Ki came out at 2.6 nM.

Consider `Cc1c(-c2cc3cc(Nc4cc5n(n4)CC(=O)NCC5)ncc3cc2F)cnc2c1NCCC2O` (racemic) [Compound 201, (+/-)-2-((7-fluoro-6-(8-hydroxy-4-methyl-5,6,7,8-tetrahydro-1,5-naphthyridin-3-yl)isoquinolin-3-yl)amino)-5,6-dihydro-4H-pyrazolo[1,5-d][1,4]diazepin-7(8H)-one formate salt], for which the Ki amounted to 0.11 nM.

For `CN1CCc2cc(Nc3cc4cc(-c5cncc6c5CCC6O)c(F)cc4cn3)nn2CC1=O` (racemic) [Compound 214, (+/-)-2-((7-fluoro-6-(7-hydroxy-6,7-dihydro-5H-cyclopenta[c]pyridin-4-yl)isoquinolin-3-yl)amino)-6-methyl-5,6-dihydro-4H-pyrazolo[1,5-d][1,4]diazepin-7(8H)-one], the Ki turned out to be 9 nM.

Take `Cc1cc(C2CCCCO2)ncc1-c1cc2cc(Nc3cc4n(n3)CC(=O)N(C)CC4)ncc2cc1F` (racemic) [Compound 218, (+/-)-2-((7-fluoro-6-(4-methyl-6-(tetrahydro-2H-pyran-2-yl)pyridin-3-yl)isoquinolin-3-yl)amino)-6-methyl-5,6-dihydro-4H-pyrazolo[1,5-d][1,4]diazepin-7(8H)-one]: the Ki came to 9 nM.

As to `Cc1c(-c2cc3cc(Nc4ccn([C@H](C)C#N)n4)ncc3cc2F)cnc2c1NCCO2` (single isomer, unassigned) [Compound 109a, 2-(3-((7-fluoro-6-(8-methyl-2,3-dihydro-1H-pyrido[2,3-b][1,4]oxazin-7-yl)isoquinolin-3-yl)amino)-1H-pyrazol-1-yl)propanenitrile], the Ki came to 2.17 nM.

As a reminder, the Ki is a measure of affinity in units of concentration, obtained from inhibition or displacement.
